{
  "source": "patent US20110021505A1",
  "about": "“Use of sulfonyl-substituted 2-sulfonylaminobenzoic acid N-phenylamides in the treatment of pain” (SANOFI-AVENTIS DEUTSCHLAND GMBH, priority 2007, published 2011)",
  "tested_on": "tactile allodynia induced in a hind paw by surgical lesion of the sciatic nerve",
  "assay": "Anti-allodynic effect in the spared nerve injury (SNI) model of neuropathic pain in mice after oral administration",
  "type": "in vivo, male C57B6 mice",
  "conditions": "for Mean PWT (paw withdrawal threshold) ± SEM / DeltaAUC1 h-6 h of PWL (mean ± SEM): N=4; for Statistical evaluation vs. control (DeltaAUC1 h-6 h): 1-way ANOVA & Dunnett; for DeltaAUC1 h-6 h of PWL (mean ± SEM): AUC contralateral minus ipsilateral paws, 1 h to 6 h after administration",
  "experimental": "In this in vivo mouse model of chronic neuropathic pain the effect on tactile allodynia, a painful sensation after a normally not painful mechanical stimulus, which had been induced in a hind paw by surgical lesion of the sciatic nerve, was determined by measuring the paw withdrawal threshold (PWT), i.e. the exerted force (expressed in grams) at which the mouse withdrew its hind paw.\nTactile allodynia was determined at both hind paws, i.e. ipsilateral and contralateral to the lesion if determined subsequent to surgery, with the automatic von Frey test in which the plantar skin of the hind paws was exposed to a pressure stimulus of increasing intensity up to 5 grams using a dump needle stick. The force in grams at which the animal responded withdrawal of the hind paw (paw withdrawal threshold, PWT), was used as a measure of tactile allodynia.\nTwo test groups and one control group of animals were used each consisting of four male C57B6 mice. In all groups, baseline PWT values (BL) were determined before surgery. For induction of neuropathic pain then, under general anesthesia, in all groups the two major branches of the sciatic nerve were ligated and transected, with the sural nerve left intact (spared nerve injury, SNI). In this model of neuropathic pain, tactile allodynia developed completely within two days after nerve transection in the hind paw ipsilateral to the lesion and remained stable in the control group over the complete observation period of the experiment.\n7 days after surgery, immediately before administration of the test compound, i.e. at the time 0 h, in all groups PWT values were determined for the injured ipsilateral hind paw and the non-injured contralateral hind paw. Then either the test compound or vehicle was administered to the animals orally by gavage. In the test groups, mice received 100 μl/10 g body weight of a suspension of the test compound in vehicle MC/T80 comprising 0.3 mg/ml or 3 mg/ml (prepared as described in pharmaceutical example A) for attaining a dosage of 3 mg/kg body weight and 30 mg/kg body weight, respectively. In the control group, mice analogously received 100 μl/10 g body weight of vehicle MC/T80. 1 h, 2 h, 4 h and 6 h after administration, PWT values were determined.\nThe given PWT values (in grams) are the mean±SEM (standard error of the mean) of the PWT measurements performed with the ipsilateral hind paw and the contralateral hind paw, respectively, of each animal of the indicated group (N (number of animals)=4) at the time points 0 h (i.e. before administration of test compound or vehicle) and 1 h, 2 h, 4 h and 6 h after administration of test compound or vehicle, as well as the baseline PWT values (BL) determined before surgery.\nFor the statistical analysis, PWT values were used in two ways, first with a 2-way ANOVA test based on the PWT values and second with a 1-way ANOVA test based on area under the curve (AUC) values for the time period of 6 h after application of the test compound or vehicle. A repeated measures 2-way ANOVA test (factor treatment and repeated measures factor time) was performed on PWT measurements. In case the interaction (treatment×time) was statistically significant, a Winer complementary analysis was done to investigate the effect of treatment for each time point. A Dunnett's test was used to study the potential differences between the control group and the test groups.\nAs a quantitative measure of the efficacy of a test compound over an extended time period, the area under the curve (AUC) of the individual PWT values for the time period from 1 h to 6 h after administration of test compound or vehicle (AUC1 h-6 h) was determined for the ipsilateral paws of each group and the obtained value subtracted from the value determined for the contralateral paws of the same group to give DeItaAUC1 h-6 h values for each group. […]",
  "data": [
    {"smiles": "O=C(Nc1ccc(S(=O)(=O)N2CCOCC2)cc1)c1cc(Cl)ccc1NS(=O)(=O)c1ccc(Cl)s1.[Na]", "note": "[Example 94, 5-Chloro-2-(5-chloro-thiophene-2-sulfonylamino)-N-(4-(morpholine-4-sulfonyl)-phenyl)-benzamide sodium salt]", "values": [
      {"measurement": "Mean PWT (paw withdrawal threshold) ± SEM", "setting": "3 mg/kg body weight group, BL baseline before surgery", "result": 4.75, "unit": "grams"},
      {"measurement": "Mean PWT (paw withdrawal threshold) ± SEM", "setting": "3 mg/kg body weight group, injured ipsilateral paw, 0 h (before administration)", "result": 1.58, "unit": "grams"},
      {"measurement": "Mean PWT (paw withdrawal threshold) ± SEM", "setting": "3 mg/kg body weight group, non-injured contralateral paw, 0 h (before administration)", "result": "4.84 ± 0.11", "unit": "grams"},
      {"measurement": "Statistical evaluation vs. control (DeltaAUC1 h-6 h)", "setting": "3 mg/kg body weight oral", "result": "*** (significant, p < 0.0001 (ANOVA & Dunnett))"},
      {"measurement": "DeltaAUC1 h-6 h of PWL (mean ± SEM)", "setting": "3 mg/kg body weight oral", "result": "4.60 ± 1.20"},
      {"measurement": "Anti-allodynic effect on PWT vs. control (2-way ANOVA, Dunnett)", "setting": "3 mg/kg body weight oral, from 1 h to 4 h after administration", "result": "Statistically significant ant-allodynic effects"},
      {"measurement": "Mean PWT (paw withdrawal threshold) ± SEM", "setting": "3 mg/kg body weight oral, injured ipsilateral paw, 1 h after administration", "result": 2.96, "unit": "grams"},
      {"measurement": "Mean PWT (paw withdrawal threshold) ± SEM", "setting": "3 mg/kg body weight oral, injured ipsilateral paw, 2 h after administration", "result": "4.64 ± 0.11", "unit": "grams"},
      {"measurement": "Mean PWT (paw withdrawal threshold) ± SEM", "setting": "3 mg/kg body weight oral, injured ipsilateral paw, 4 h after administration", "result": "4.12 ± 0.17", "unit": "grams"},
      {"measurement": "Mean PWT (paw withdrawal threshold) ± SEM", "setting": "3 mg/kg body weight oral, injured ipsilateral paw, 6 h after administration", "result": "2.50 ± 0.40", "unit": "grams"},
      {"measurement": "Mean PWT (paw withdrawal threshold) ± SEM", "setting": "3 mg/kg body weight oral, non-injured contralateral paw, 1 h after administration", "result": "4.66 ± 0.14", "unit": "grams"},
      {"measurement": "Mean PWT (paw withdrawal threshold) ± SEM", "setting": "3 mg/kg body weight oral, non-injured contralateral paw, 2 h after administration", "result": "4.95 ± 0.02", "unit": "grams"},
      {"measurement": "Mean PWT (paw withdrawal threshold) ± SEM", "setting": "3 mg/kg body weight oral, non-injured contralateral paw, 4 h after administration", "result": "4.61 ± 0.13", "unit": "grams"},
      {"measurement": "Mean PWT (paw withdrawal threshold) ± SEM", "setting": "3 mg/kg body weight oral, non-injured contralateral paw, 6 h after administration", "result": 4.82, "unit": "grams"},
      {"measurement": "Mean PWT (paw withdrawal threshold) ± SEM", "setting": "30 mg/kg body weight group, BL baseline before surgery", "result": 4.70, "unit": "grams"},
      {"measurement": "Mean PWT (paw withdrawal threshold) ± SEM", "setting": "30 mg/kg body weight group, injured ipsilateral paw, 0 h (before administration)", "result": 1.91, "unit": "grams"},
      {"measurement": "Mean PWT (paw withdrawal threshold) ± SEM", "setting": "30 mg/kg body weight group, non-injured contralateral paw, 0 h (before administration)", "result": "4.69 ± 0.23", "unit": "grams"},
      {"measurement": "Statistical evaluation vs. control (DeltaAUC1 h-6 h)", "setting": "30 mg/kg body weight oral", "result": "*** (significant, p < 0.0001 (ANOVA & Dunnett))"},
      {"measurement": "DeltaAUC1 h-6 h of PWL (mean ± SEM)", "setting": "30 mg/kg body weight oral", "result": "1.52 ± 0.94"},
      {"measurement": "Anti-allodynic effect on PWT vs. control (2-way ANOVA, Dunnett)", "setting": "30 mg/kg body weight oral, from 1 h to 6 h after administration", "result": "Statistically significant ant-allodynic effects"},
      {"measurement": "Mean PWT (paw withdrawal threshold) ± SEM", "setting": "30 mg/kg body weight oral, injured ipsilateral paw, 1 h after administration", "result": 3.70, "unit": "grams"},
      {"measurement": "Mean PWT (paw withdrawal threshold) ± SEM", "setting": "30 mg/kg body weight oral, injured ipsilateral paw, 2 h after administration", "result": "4.66 ± 0.10", "unit": "grams"},
      {"measurement": "Mean PWT (paw withdrawal threshold) ± SEM", "setting": "30 mg/kg body weight oral, injured ipsilateral paw, 4 h after administration", "result": "4.51 ± 0.17", "unit": "grams"},
      {"measurement": "Mean PWT (paw withdrawal threshold) ± SEM", "setting": "30 mg/kg body weight oral, injured ipsilateral paw, 6 h after administration", "result": "4.24 ± 0.08", "unit": "grams"},
      {"measurement": "Mean PWT (paw withdrawal threshold) ± SEM", "setting": "30 mg/kg body weight oral, non-injured contralateral paw, 1 h after administration", "result": "4.82 ± 0.10", "unit": "grams"},
      {"measurement": "Mean PWT (paw withdrawal threshold) ± SEM", "setting": "30 mg/kg body weight oral, non-injured contralateral paw, 2 h after administration", "result": "4.84 ± 0.10", "unit": "grams"},
      {"measurement": "Mean PWT (paw withdrawal threshold) ± SEM", "setting": "30 mg/kg body weight oral, non-injured contralateral paw, 4 h after administration", "result": "4.70 ± 0.19", "unit": "grams"},
      {"measurement": "Mean PWT (paw withdrawal threshold) ± SEM", "setting": "30 mg/kg body weight oral, non-injured contralateral paw, 6 h after administration", "result": 4.55, "unit": "grams"},
      {"measurement": "Improvement of DeltaAUC1 h-6 h over vehicle control (1-way ANOVA)", "setting": "both dosages, 3 mg/kg and 30 mg/kg body weight oral", "result": "significant improvement over the control group"}
    ]}
  ]
}
